Here are results for one compound from patent publication US20160015770A1, “COMPOSITIONS FOR TREATMENT OF RETINAL DETACHMENT” (THE REGENTS OF THE UNIVERSITY OF MICHIGAN, priority 2013, published 2016).

Structures are written as SMILES.

The target in this test is T1, calpain 1 (Mus musculus, UniProt O35350).
T1 construct: endogenous in cells; host or cells: 661W mouse photoreceptor cell line
T1 sequence (O35350 1-713): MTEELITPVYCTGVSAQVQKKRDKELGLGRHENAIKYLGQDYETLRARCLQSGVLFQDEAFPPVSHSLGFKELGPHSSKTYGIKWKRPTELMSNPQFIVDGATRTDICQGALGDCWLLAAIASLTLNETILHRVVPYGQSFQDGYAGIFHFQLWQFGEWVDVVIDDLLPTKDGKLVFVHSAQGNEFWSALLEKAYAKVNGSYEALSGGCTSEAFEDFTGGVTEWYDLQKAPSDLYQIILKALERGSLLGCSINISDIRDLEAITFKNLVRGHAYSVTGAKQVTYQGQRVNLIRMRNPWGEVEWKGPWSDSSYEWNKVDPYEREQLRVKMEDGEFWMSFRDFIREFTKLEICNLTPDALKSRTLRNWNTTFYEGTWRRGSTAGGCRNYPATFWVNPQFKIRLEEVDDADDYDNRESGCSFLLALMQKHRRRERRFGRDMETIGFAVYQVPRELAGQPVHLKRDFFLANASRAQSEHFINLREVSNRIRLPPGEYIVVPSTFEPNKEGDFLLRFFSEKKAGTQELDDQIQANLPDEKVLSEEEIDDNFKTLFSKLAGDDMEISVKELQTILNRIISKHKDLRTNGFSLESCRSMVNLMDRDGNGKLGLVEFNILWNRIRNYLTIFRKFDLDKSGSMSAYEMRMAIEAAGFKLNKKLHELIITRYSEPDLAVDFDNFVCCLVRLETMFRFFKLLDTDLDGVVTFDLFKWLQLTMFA
T1 sequence (O88456 1-268 partner): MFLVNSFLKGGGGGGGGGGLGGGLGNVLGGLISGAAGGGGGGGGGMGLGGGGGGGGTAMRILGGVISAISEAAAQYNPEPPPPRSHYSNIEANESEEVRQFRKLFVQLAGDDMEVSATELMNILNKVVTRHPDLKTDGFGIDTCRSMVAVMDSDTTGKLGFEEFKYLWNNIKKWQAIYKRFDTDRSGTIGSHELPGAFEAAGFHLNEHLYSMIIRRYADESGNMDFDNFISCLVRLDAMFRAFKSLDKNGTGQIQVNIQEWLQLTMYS
Kind of test: Western blot of calpain 1 specific cleaved alpha-spectrin in 661W cells treated with Fas activating antibody. It counts as cell-based. Particulars: 24 hours. As for the experimental part: The 661W photoreceptor cell line was generously provided by Dr. Muayyad Al-Ubaidi (Department of Cell Biology, University of Oklahoma Health Sciences Center, Oklahoma City, Okla.). The 661W cell line was maintained in Dulbecco's modified Eagle's medium containing 10% fetal bovine serum, 300 mg/L glutamine, 32 mg/L putrescine, 40 μL/L β-mercaptoethanol, and 40 μg/L of both hydrocortisone 21-hemisuccinate and progesterone. The media also contained penicillin (90 units/mL) and streptomycin (0.09 mg/mL). Cells were grown at 37° C. in a humidified atmosphere of 5% CO2 and 95% air.
Retinas from experimental eyes with detachment (detached portion of retina only) and control eyes without detachment were dissected from the RPE-choroid, homogenized, and lysed in buffer containing 10 mM HEPES (pH 7.6), 0.5% IgEPal, 42 mM KCl, 1 mM phenylmethylsulfonyl fluoride, 1 mM EDTA, 1 mM EGTA, 1 mM dithiothreitol, 5 mM MgCl2, and one tablet of protease inhibitors per 10 mL buffer (Complete Mini; Roche Diagnostics GmbH, Madison, Wis.). 661W cells were plated at 150,000 cells per well in six-well culture dishes in growth media. After 24 hours, the cells were washed one time with warmed PBS solution and then placed in growth media without fetal bovine serum. Depending on experimental conditions, 500 ng/mL Fas activating antibody (BD Biosciences, San Jose, Calif.) and various calpain inhibitors including MDG-28170 (Sigma, St. Louis, Mo.), MG-101 (Sigma, St. Louis, Mo.), calpeptin (Santa Cruz Biotechnology, Santa Cruz, Calif.) or equal volume of DMSO was added. Calpain inhibitors were added 1 hour prior to the addition of Fas activating antibody. The cells were incubated for various lengths of time and then lysed and homogenized in lysis buffer. The homogenates were incubated on ice and centrifuged at 22,000 g at 4° C. for 60 minutes. The protein concentration of the supernatant was then determined (DC Protein Assay kit; Bio-Rad Laboratories, Hercules, Calif.). The protein samples were separated on SDS-polyacrylamide gels (Tris-HCl Ready Gels; Bio-Rad Laboratories). After electrophoretic separation, the proteins were transferred onto polyvinylidene fluoride membranes (Immobilon-P; Millipore, Billerica, Mass.). Membranes were then immunoblotted with antibodies according to the manufacturer's instructions. The following antibodies were used: LC3b (Cell Signaling, Beverly, Mass.), Atg5 (Abgent, San Diego, Calif.), Atg12 (Cell Signaling, Beverly, Mass.), calpain 1 (Cell Signaling, Beverly, Mass.), alpha-spectrin (Santa Cruz Biotechnology, Santa Cruz, Calif.), actin (Sigma, St. Louis, Mo.), and GAPDH (Abcam, Cambridge, Mass.).
After determining calpain 1 levels, it was looked to correlate this with calpain activity. […]

`CCCC[C@@H](C=O)NC(=O)[C@H](CC(C)C)NC(=O)OCc1ccccc1` [calpeptin]: the “relative size of the effect on cleaved alpha-spectrin among the calpain inhibitors” value (Fas activating antibody, two concentrations) is listed as “largest effect”. Further, the cleaved alpha-spectrin levels result (inhibitor added 1 hour before Fas activating antibody, compared to Fas activation alone) was “decreased”.
